How the values were obtained:
PC-12 [1] = assay: Neuroprotective activity against H2O2 -mediated injury in rat PC12 cells assessed as cell survival at 1 uM relative to control; format: functional; conditions: read-out: Survival
PC-12 [2] = assay: Neuroprotective activity against H2O2 -mediated injury in rat PC12 cells assessed as cell survival at 0.1 uM relative to control; format: functional; conditions: read-out: Survival
PC-12 [3] = assay: Neuroprotective activity against H2O2 -mediated injury in rat PC12 cells assessed as cell survival at 0.01 uM relative to control; format: functional; conditions: read-out: Survival
[4] = molecular target: Poly [ADP-ribose] polymerase 1 (Homo sapiens) (UniProt P09874); assay: Inhibition of PARP1 (unknown origin) at 2.8 uM
Poly [ADP-ribose] polymerase 1 (Homo sapiens), sequence (P09874 whole entry): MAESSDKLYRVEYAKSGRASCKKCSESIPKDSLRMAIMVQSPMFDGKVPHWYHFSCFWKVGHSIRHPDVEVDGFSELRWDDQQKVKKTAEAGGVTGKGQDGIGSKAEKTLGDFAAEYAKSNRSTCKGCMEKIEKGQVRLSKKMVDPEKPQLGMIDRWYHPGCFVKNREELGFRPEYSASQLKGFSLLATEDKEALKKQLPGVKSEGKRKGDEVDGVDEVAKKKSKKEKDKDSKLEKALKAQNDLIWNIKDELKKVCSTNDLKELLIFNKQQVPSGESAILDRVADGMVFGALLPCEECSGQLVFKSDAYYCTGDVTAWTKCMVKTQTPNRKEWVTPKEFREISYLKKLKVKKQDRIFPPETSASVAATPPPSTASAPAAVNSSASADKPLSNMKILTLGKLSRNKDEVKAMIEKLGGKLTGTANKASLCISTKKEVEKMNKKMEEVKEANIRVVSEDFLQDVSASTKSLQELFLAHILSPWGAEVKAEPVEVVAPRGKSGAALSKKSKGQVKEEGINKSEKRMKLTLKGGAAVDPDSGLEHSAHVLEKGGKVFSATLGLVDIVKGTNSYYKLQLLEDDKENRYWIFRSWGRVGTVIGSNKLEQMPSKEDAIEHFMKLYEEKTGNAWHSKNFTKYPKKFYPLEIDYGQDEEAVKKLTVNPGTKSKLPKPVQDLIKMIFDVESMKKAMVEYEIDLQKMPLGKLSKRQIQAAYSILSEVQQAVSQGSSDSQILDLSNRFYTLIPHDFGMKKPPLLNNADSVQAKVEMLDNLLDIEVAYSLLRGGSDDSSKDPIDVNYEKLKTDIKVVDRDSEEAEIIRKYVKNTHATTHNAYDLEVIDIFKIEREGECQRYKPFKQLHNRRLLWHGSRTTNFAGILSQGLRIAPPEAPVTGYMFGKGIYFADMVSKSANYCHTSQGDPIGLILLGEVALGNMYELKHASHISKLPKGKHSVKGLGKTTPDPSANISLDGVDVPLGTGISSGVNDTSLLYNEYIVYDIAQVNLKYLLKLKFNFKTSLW

Compound | viability at 1 µM (PC-12 [1]) [%] | viability at 0.1 µM (PC-12 [2]) [%] | viability at 0.01 µM (PC-12 [3]) [%] | inhibition [4] [%]
O=c1[nH]nc2c3c(cccc13)N=C(c1ccccc1)N2 | 88.5 | 98.2 | 81.6 | 
NC(=O)c1ccccc1 |  |  |  | 59.3
COCCOC(=O)C1=C(C)NC(C)=C(C(=O)OC(C)C)C1c1cccc([N+](=O)[O-])c1 (stereo not drawn) [NIMODIPINE] | 90.4 |  |  | 
Cc1ccc(C2=Nc3cccc4c(=O)[nH]nc(c34)N2)cc1 | 98 | 97.2 | 70.9 | 
